Patent publication US10800792B2, “Inhibitors of Bruton's tyrosine kinase and method of their use” (JANSSEN PHARMACEUTICA NV, priority 2015, dated 2020)

Target: unphosphorylated-BTK kinase domain (UP-BTK), GST-tagged human BTK (389-659aa) (Homo sapiens (Human), UniProt Q06187)
Test: BTK kinase Lanthascreen binding assay
Conditions: pIC50 = negative log of the IC50 in molar; 60 minutes incubation, 50 nM Tracer 236
Outline: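 Measures how well compounds compete with a fluorescence-labelled tracer for binding to BTK in its unphosphorylated state. IC50 values were fitted and expressed as pIC50 (negative logarithm of the molar IC50).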

unphosphorylated-BTK kinase domain (UP-BTK), GST-tagged human BTK (389-659aa), sequence (Q06187 389-659): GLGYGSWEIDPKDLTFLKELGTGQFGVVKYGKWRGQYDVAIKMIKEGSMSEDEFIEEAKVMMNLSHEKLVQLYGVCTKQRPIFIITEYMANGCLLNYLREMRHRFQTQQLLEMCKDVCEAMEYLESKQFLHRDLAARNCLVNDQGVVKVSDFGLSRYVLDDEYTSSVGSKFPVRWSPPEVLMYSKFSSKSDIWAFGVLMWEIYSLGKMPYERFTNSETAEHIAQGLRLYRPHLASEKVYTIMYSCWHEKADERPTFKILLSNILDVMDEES

Structure (SMILES)	BTK_I_binding pIC50
Cc1cc(Oc2ccccc2)ccc1N1C(=O)Nc2c(C(=O)N[C@H]3CNC[C@H]3O)sc3nccc1c23 [Example 241, N-((3S,4R)-4-hydroxypyrrolidin-3-yl)-5-(2-methyl-4-phenoxyphenyl)-4-oxo-4,5-dihydro-3H-1-thia-3,5,8-triazaacenaphthylene-2-carboxamide]	6.7
Cc1cc(Oc2ccccc2C(F)(F)F)ccc1N1C(=O)Nc2c(C(=O)N[C@@H]3CCCN(C)C3)sc3nccc1c23 [Example 242, (R)-5-(2-Methyl-4-(2-(trifluoromethyl)phenoxy)phenyl)-N-(1-methylpiperidin-3-yl)-4-oxo-4,5-dihydro-3H-1-thia-3,5,8-triazaacenaphthylene-2-carboxamide]	6.7
Cc1cc(Oc2ccccc2)ccc1N1C(=O)Nc2c(C(=O)N[C@H]3CN(C)C[C@@H]3O)sc3nccc1c23 [Example 243, N-((3S,4S)-4-Hydroxy-1-methylpyrrolidin-3-yl)-5-(2-methyl-4-phenoxyphenyl)-4-oxo-4,5-dihydro-3H-1-thia-3,5,8-triazaacenaphthylene-2-carboxamide]	6.6
CO[C@H]1CN(C)C[C@@H]1NC(=O)c1sc2nccc3c2c1NC(=O)N3c1ccc(Oc2ccccc2)cc1C [Example 244, N-((3S,4S)-4-Methoxy-1-methylpyrrolidin-3-yl)-5-(2-methyl-4-phenoxyphenyl)-4-oxo-4,5-dihydro-3H-1-thia-3,5,8-triazaacenaphthylene-2-carboxamide]	6.6
CO[C@H]1CNC[C@@H]1NC(=O)c1sc2nccc3c2c1NC(=O)N3c1ccc(Oc2ccccc2)cc1C [Example 245, N-((3S,4S)-4-Methoxypyrrolidin-3-yl)-5-(2-methyl-4-phenoxyphenyl)-4-oxo-4,5-dihydro-3H-1-thia-3,5,8-triazaacenaphthylene-2-carboxamide]	6.6
COCCC(=O)N1CC(NC(=O)c2sc3nccc4c3c2NC(=O)N4c2ccc(Oc3ccccc3)cc2C)C1 [Example 246, N-(1-(3-Methoxypropanoyl)azetidin-3-yl)-5-(2-methyl-4-phenoxyphenyl)-4-oxo-4,5-dihydro-3H-1-thia-3,5,8-triazaacenaphthylene-2-carboxamide]	6.5
Cc1cc(Oc2ccccc2)ccc1N1C(=O)Nc2c(C(=O)N[C@@H]3CCCN(C(=O)/C=C/C(C)C)C3)sc3nccc1c23 [Example 247, (R,E)-5-(2-Methyl-4-phenoxyphenyl)-N-(1-(4-methylpent-2-enoyl)piperidin-3-yl)-4-oxo-4,5-dihydro-3H-1-thia-3,5,8-triazaacenaphthylene-2-carboxamide]	6.5
Cc1cc(Oc2ccccc2)ccc1N1C(=O)Nc2c(C(=O)NC3CN(C)C3)sc3nccc1c23 [Example 248, 5-(2-Methyl-4-phenoxyphenyl)-N-(1-methylazetidin-3-yl)-4-oxo-4,5-dihydro-3H-1-thia-3,5,8-triazaacenaphthylene-2-carboxamide]	6.5
Cc1cc(OC2CCCCC2)ccc1N1C(=O)Nc2c(C(=O)N[C@@H]3CCCN(C)C3)sc3nccc1c23 [Example 250, (R)-5-(4-(Cyclohexyloxy)-2-methylphenyl)-N-(1-methylpiperidin-3-yl)-4-oxo-4,5-dihydro-3H-1-thia-3,5,8-triazaacenaphthylene-2-carboxamide]	6.4
CCN1CC(NC(=O)c2sc3nccc4c3c2NC(=O)N4c2ccc(Oc3ccccc3)cc2C)C1 [Example 251, N-(1-Ethylazetidin-3-yl)-5-(2-methyl-4-phenoxyphenyl)-4-oxo-4,5-dihydro-3H-1-thia-3,5,8-triazaacenaphthylene-2-carboxamide]	6.4
Cc1cc(Oc2ccccc2)ccc1N1C(=O)Nc2c(C(=O)NC3CNC3)sc3nccc1c23 [Example 252, N-(azetidin-3-yl)-5-(2-methyl-4-phenoxyphenyl)-4-oxo-4,5-dihydro-3H-1-thia-3,5,8-triazaacenaphthylene-2-carboxamide]	6.4
C=CC(=O)N1CCC[C@@H](NC(=O)c2sc3nccc4c3c2NC(=O)N4c2ccc(OC)cc2)C1 [Example 254]	6.6
C=CC(=O)N1CCC[C@@H](NC(=O)c2sc3nccc4c3c2NC(=O)N4c2ccc(F)cc2)C1 [Example 255, (R)—N-(1-Acryloylpiperidin-3-yl)-5-(4-fluorophenyl)-4-oxo-4,5-dihydro-3H-1-thia-3,5,8-triazaacenaphthylene-2-carboxamide]	6.6
C=CC(=O)N1CCC[C@@H](NC(=O)c2sc3nccc4c3c2NC(=O)N4c2ccc(Cl)cc2)C1 [Example 256, (R)—N-(1-Acryloylpiperidin-3-yl)-5-(4-chlorophenyl)-4-oxo-4,5-dihydro-3H-1-thia-3,5,8-triazaacenaphthylene-2-carboxamide]	6.6
C=CC(=O)N1CCC[C@@H](NC(=O)c2sc3nccc4c3c2NC(=O)N4c2ccccc2)C1 [Example 257, (R)—N-(1-Acryloylpiperidin-3-yl)-4-oxo-5-phenyl-4,5-dihydro-3H-1-thia-3,5,8-triazaacenaphthylene-2-carboxamide]	6.4

Next, values leading:

BTK_I_binding pIC50	Structure (SMILES)
6.5	Cc1cc(Oc2ccccc2)ccc1N1C(=O)Nc2c(C(=O)NC3CCNC(C)C3)sc3nccc1c23 (stereo not shown) [Example 258, 5-(2-methyl-4-phenoxyphenyl)-N-(2-methylpiperidin-4-yl)-4-oxo-4,5-dihydro-3H-1-thia-3,5,8-triazaacenaphthylene-2-carboxamide]
6.5	CO[C@@H]1C[C@@H](NC(=O)c2sc3nccc4c3c2NC(=O)N4c2ccc(Oc3ccccc3)cc2)CN(C)C1 [Example 259, N-((3R,5R)-5-Methoxy-1-methylpiperidin-3-yl)-4-oxo-5-(4-phenoxyphenyl)-4,5-dihydro-3H-1-thia-3,5,8-triazaacenaphthylene-2-carboxamide]
6.5	CC(C)=C(Cl)C(=O)N1CCC[C@@H](NC(=O)c2sc3nccc4c3c2NC(=O)N4c2ccc(Oc3ccccc3)cc2C)C1 [Example 260, (R)—N-(1-(2-chloro-3-methylbut-2-enoyl)piperidin-3-yl)-5-(2-methyl-4-phenoxyphenyl)-4-oxo-4,5-dihydro-3H-1-thia-3,5,8-triazaacenaphthylene-2-carboxamide]
6.5	C/C=C(\F)C(=O)N1CCC[C@@H](NC(=O)c2sc3nccc4c3c2NC(=O)N4c2ccc(Oc3ccccc3)cc2C)C1 [Example 261, (R,Z)—N-(1-(2-Fluorobut-2-enol)piperidin-3-yl)-5-(2-methyl-4-phenoxyphenyl)-4-oxo-4,5-dihydro-3H-1-thia-3,5,8-triazaacenaphthylene-2-carboxamide]
6.4	CC(C)=C(F)C(=O)N1CCC[C@@H](NC(=O)c2sc3nccc4c3c2NC(=O)N4c2ccc(Oc3ccccc3)cc2C)C1 [Example 263, (R)—N-(1-(2-Fluoro-3-methylbut-2-enoyl)piperidin-3-yl)-5-(2-methyl-4-phenoxyphenyl)-4-oxo-4,5-dihydro-3H-1-thia-3,5,8-triazaacenaphthylene-2-carboxamide]
6.4	C=CC(=O)N1CC[C@@H](NC(=O)c2sc3nccc4c3c2NC(=O)N4c2ccc(S(F)(F)(F)(F)F)cc2C)C1 [Example 264, (R)—N-(1-Acryloylpyrrolidin-3-yl)-5-(2-methyl-4-(pentafluorothio)phenyl)-4-oxo-4,5-dihydro-3H-1-thia-3,5,8-triazaacenaphthylene-2-carboxamide]
6.4	Cc1cc(Oc2ccccc2)ccc1N1C(=O)Nc2c(C(=O)NC[C@@H]3CCCN3C)sc3nccc1c23 [Example 265, (S)-5-(2-Methyl-4-phenoxyphenyl)-N-((1-methylpyrrolidin-2-yl)methyl)-4-oxo-4,5-dihydro-3H-1-thia-3,5,8-triazaacenaphthylene-2-carboxamide]
6.3	Cc1cc(Oc2ccccc2)ccc1N1C(=O)Nc2c(C(=O)N[C@@H]3C[C@H](O)CN(C)C3)sc3nccc1c23 [Example 266, N-((3R,5S)-5-Hydroxy-1-methylpiperidin-3-yl)-5-(2-methyl-4-phenoxyphenyl)-4-oxo-4,5-dihydro-3H-1-thia-3,5,8-triazaacenaphthylene-2-carboxamide]
6.3	CO[C@@H]1CNC[C@H](NC(=O)c2sc3nccc4c3c2NC(=O)N4c2ccc(Oc3ccccc3)cc2C)C1 [Example 268, N-((3R,5S)-5-Methoxypiperidin-3-yl)-5-(2-methyl-4-phenoxyphenyl)-4-oxo-4,5-dihydro-3H-1-thia-3,5,8-triazaacenaphthylene-2-carboxamide]
6.3	Cc1cc(Oc2ccccc2)ccc1N1C(=O)Nc2c(C(=O)NC[C@@H]3CCCN3)sc3nccc1c23 [Example 269, (S)-5-(2-Methyl-4-phenoxyphenyl)-4-oxo-N-(pyrrolidin-2-ylmethyl)-4,5-dihydro-3H-1-thia-3,5,8-triazaacenaphthylene-2-carboxamide]
6.3	C=CC(=O)N1CC[C@@H](NC(=O)c2sc3nccc4c3c2NC(=O)N4c2ccc(OC3CCOCC3)cc2C)C1 [Example 270, (R)—N-(1-Acryloylpyrrolidin-3-yl)-5-(2-methyl-4-((tetrahydro-2H-pyran-4-yl)oxy)phenyl)-4-oxo-4,5-dihydro-3H-1-thia-3,5,8-triazaacenaphthylene-2-carboxamide]
6.3	C=CC(=O)N1CCC[C@@H](NC(=O)c2sc3nccc4c3c2NC(=O)N4c2ccc(C)cc2)C1 [Example 271, (R)—N-(1-Acryloylpiperidin-3-yl)-4-oxo-5-(p-tolyl)-4,5-dihydro-3H-1-thia-3,5,8-triazaacenaphthylene-2-carboxamide]
6.3	Cc1cc(Oc2ccccc2)ccc1N1C(=O)Nc2c(C(=O)N[C@H]3CN(C)CC(F)(F)C3)sc3nccc1c23 [Example 272, (R)—N-(5,5-Difluoro-1-methylpiperidin-3-yl)-5-(2-methyl-4-phenoxyphenyl)-4-oxo-4,5-dihydro-3H-1-thia-3,5,8-triazaacenaphthylene-2-carboxamide]
